Experimental data as given in patent US9169269B2, “Water-soluble solid pharmaceutical inclusion complexes and their aqueous solutions for oral, ophthalmic, topical or parenteral use containing a macrolide and certain cyclodextrins” (EUTICALS SPA, priority 2010, dated 2015).

How the values were obtained:
Assay type in all cases: physicochemical
[1] = Preliminary stability tests on micronized Rapamycin and in solution (ethanol); settings: finely micronized (10^−5 microns) and in solution (ethanol), within few hours
Excerpt: In order to proceed with formulative studies we have performed preliminary stability tests on micronized Rapamycin (10^−5 microns) and in solution (ethanol).

[2] = Stability of Everolimus gamma CD complex versus amorphous Everolimus (powder) at 60° C., total impurities (HPLC); settings: powder 60° C.
Description: For the HPLC determination of the chromatographic purity of Temsirolimus and Everolimus: Column: Zorbax SB-C18; 3.5 μm (75×4.6 mm), Precolumn: Symmetry Shield RP18; 5 μm (20×3.9 mm).
Mobile Phase composition: • Component A: 900 ml of water, 100 ml of acetonitrile and 50 μl of 50% aqueous acetic acid • Component B: 1000 ml of acetonitrile and 50 μl of 50% aqueous acetic acid Gradient elution: […]
Flow rate: 1 ml/min. Column temperature: 60° C. Volume of injection: 20 μl.
Sample preparation: solution of 0.5 mg/ml in acetonitrile. Detector UV: 278 nm
The stability data on Everolimus complex with CD prepared according each of the examples 2 and 3 are reported on FIG. 3 and on Table 7.
In particular, in FIG. 3, are reported the sum of the related by products originated by degradation (HPLC data in area %) during a stability tests performed on the powder at 60° C. for 96 hours.

[3] = Stability of amorphous and crystalline Rapamycin at 60° C. (HPLC chromatographic purity); settings: for decrease of chromatographic purity: after 408 hours (17 days)
Description: For the HPLC determination of chromatographic purity of Rapamycin: Column: Thermo BDS Hypersil C18; 3 μm (100×4.6 mm). Mobile Phase composition: isocratic elution • Component A: 50% acetonitrile • Component B: 50% ammonium acetate buffer pH 5.8 (concentration 0.8 g/l of ammonium acetate; the final pH value was brought to a final value of 5.8 with glacial acetic acid)
Flow rate: 1.0 ml/min. Column temperature: 55° C. Volume of injection: 100 μl.
Sample solution: weight 25 mg of Rapamycin and dissolve in 100 ml of acetonitrile/water 1/1 v/v (final concentration 0.25 mg/ml). UV detector: 278 nm

SMILES | decrease in the assay value [1] | HPLC area % of total impurities ([2]; 0 hours) | HPLC area % of total impurities ([2]; 24 hours) | HPLC area % of total impurities ([2]; 48 hours) | HPLC area % of total impurities ([2]; 72 hours) | HPLC area % of total impurities ([2]; 96 hours) | HPLC area % of total impurities ([2]; 168 hours) | chromatographic purity (HPLC data) ([3]; 0 hours) | chromatographic purity (HPLC data) ([3]; 20 hours) | chromatographic purity (HPLC data) ([3]; 96 hours) | chromatographic purity (HPLC data) ([3]; 168 hours) | chromatographic purity (HPLC data) ([3]; 408 hours) | decrease of chromatographic purity [3]
CO[C@H]1C[C@@H]2CC[C@@H](C)[C@@](O)(O2)C(=O)C(=O)N2CCCC[C@H]2C(=O)O[C@H]([C@H](C)C[C@@H]2CC[C@@H](O)[C@H](OC)C2)CC(=O)[C@H](C)/C=C(\C)[C@@H](O)[C@@H](OC)C(=O)[C@H](C)C[C@H](C)/C=C/C=C/C=C/1C [Rapamycin] | −10% |  |  |  |  |  |  |  |  |  |  |  | 
CO[C@H]1C[C@@H]2CC[C@@H](C)[C@@](O)(O2)C(=O)C(=O)N2CCCC[C@H]2C(=O)O[C@H]([C@H](C)C[C@@H]2CC[C@@H](OCCO)[C@H](OC)C2)CC(=O)[C@H](C)/C=C(\C)[C@@H](O)[C@@H](OC)C(=O)[C@H](C)C[C@H](C)/C=C/C=C/C=C/1C [Amorphous Everolimus, Everolimus] |  | 1.5 area % | 2.44 area % | 4.52 area % | 7.1 area % | 9.2 area % | 14.1 area % |  |  |  |  |  | 
CO[C@H]1C[C@@H]2CC[C@@H](C)[C@@](O)(O2)C(=O)C(=O)N2CCCC[C@H]2C(=O)O[C@H]([C@H](C)C[C@@H]2CC[C@@H](O)[C@H](OC)C2)CC(=O)[C@H](C)/C=C(\C)[C@@H](O)[C@@H](OC)C(=O)[C@H](C)C[C@H](C)/C=C/C=C/C=C/1C [Amorphous Rapamycin, Rapamycin] |  |  |  |  |  |  |  | 98.90 area % | 93.00 area % | 90.00 area % | 88.00 area % | 84.90 area % | −14%
CO[C@H]1C[C@@H]2CC[C@@H](C)[C@@](O)(O2)C(=O)C(=O)N2CCCC[C@H]2C(=O)O[C@H]([C@H](C)C[C@@H]2CC[C@@H](O)[C@H](OC)C2)CC(=O)[C@H](C)/C=C(\C)[C@@H](O)[C@@H](OC)C(=O)[C@H](C)C[C@H](C)/C=C/C=C/C=C/1C [Crystalline Rapamycin, Rapamycin] |  |  |  |  |  |  |  | 99.10 area % | 99.10 area % | 99.10 area % | 99.00 area % | 99.00 area % | the same chromatographic purity
